Consider three molecules from ChEMBL document CHEMBL3804767, “Discovery and Preclinical Evaluation of BMS-955829, a Potent Positive Allosteric Modulator of mGluR5” (ACS Med Chem Lett, 2016).

For series [1], the system named is Mus musculus. As to the kind of experiment: Neurotoxicity in C57/BL6 mouse assessed as induction of convulsion at 3 mg/kg, ip. Type of series: toxicity, organism-based. The settings on record: in vivo.
In series [2] the test system is Mus musculus. Description: Toxicity in C57/BL6 mouse assessed as death at 3 mg/kg, ip. The conditions noted are these: in vivo. It counts as organism-based.
Series [3] in a line: Protein binding in plasma (unknown origin). It counts as ADME, cell-free. The conditions noted are these: read-out: PPB (converted).
Series [4] concerns Mus musculus. Description: Neurotoxicity in C57/BL6 mouse assessed as induction of convulsion at 30 mg/kg, ip. Type of series: toxicity, organism-based. The settings on record: in vivo.
Series [5] concerns the target T1, Metabotropic glutamate receptor 5 (Homo sapiens, UniProt P41594).
Description: Positive allosteric modulation of human mGlu5A receptor expressed in HEK293 cells coexpressing rat glutamate-aspartate transporter assessed as potentiation of L-glutamate-induced Ca2+ signal incubated for 60 mins by calcium 4 dye based FLIPR assay
Series [6] has as its target T1, Metabotropic glutamate receptor 5. This is another data set of the same source.
Description: Displacement of [3H]MPEPgamma in mGlu5 receptor (unknown origin) incubated for 60 mins by liquid scintillation counting method
Series [7] shares this target. This is another data set of the same source.
Description: Agonist activity at human mGlu5A receptor expressed in HEK293 cells coexpressing rat glutamate-aspartate transporter assessed as induction of Ca2+ release by calcium 4 dye based FLIPR assay
The subject of series [8] is Mus musculus. Description: Neurotoxicity in C57/BL6 mouse assessed as induction of convulsion at 10 mg/kg, ip. Type of series: toxicity, organism-based. The conditions noted are these: in vivo.

T1 sequence (P41594 whole entry): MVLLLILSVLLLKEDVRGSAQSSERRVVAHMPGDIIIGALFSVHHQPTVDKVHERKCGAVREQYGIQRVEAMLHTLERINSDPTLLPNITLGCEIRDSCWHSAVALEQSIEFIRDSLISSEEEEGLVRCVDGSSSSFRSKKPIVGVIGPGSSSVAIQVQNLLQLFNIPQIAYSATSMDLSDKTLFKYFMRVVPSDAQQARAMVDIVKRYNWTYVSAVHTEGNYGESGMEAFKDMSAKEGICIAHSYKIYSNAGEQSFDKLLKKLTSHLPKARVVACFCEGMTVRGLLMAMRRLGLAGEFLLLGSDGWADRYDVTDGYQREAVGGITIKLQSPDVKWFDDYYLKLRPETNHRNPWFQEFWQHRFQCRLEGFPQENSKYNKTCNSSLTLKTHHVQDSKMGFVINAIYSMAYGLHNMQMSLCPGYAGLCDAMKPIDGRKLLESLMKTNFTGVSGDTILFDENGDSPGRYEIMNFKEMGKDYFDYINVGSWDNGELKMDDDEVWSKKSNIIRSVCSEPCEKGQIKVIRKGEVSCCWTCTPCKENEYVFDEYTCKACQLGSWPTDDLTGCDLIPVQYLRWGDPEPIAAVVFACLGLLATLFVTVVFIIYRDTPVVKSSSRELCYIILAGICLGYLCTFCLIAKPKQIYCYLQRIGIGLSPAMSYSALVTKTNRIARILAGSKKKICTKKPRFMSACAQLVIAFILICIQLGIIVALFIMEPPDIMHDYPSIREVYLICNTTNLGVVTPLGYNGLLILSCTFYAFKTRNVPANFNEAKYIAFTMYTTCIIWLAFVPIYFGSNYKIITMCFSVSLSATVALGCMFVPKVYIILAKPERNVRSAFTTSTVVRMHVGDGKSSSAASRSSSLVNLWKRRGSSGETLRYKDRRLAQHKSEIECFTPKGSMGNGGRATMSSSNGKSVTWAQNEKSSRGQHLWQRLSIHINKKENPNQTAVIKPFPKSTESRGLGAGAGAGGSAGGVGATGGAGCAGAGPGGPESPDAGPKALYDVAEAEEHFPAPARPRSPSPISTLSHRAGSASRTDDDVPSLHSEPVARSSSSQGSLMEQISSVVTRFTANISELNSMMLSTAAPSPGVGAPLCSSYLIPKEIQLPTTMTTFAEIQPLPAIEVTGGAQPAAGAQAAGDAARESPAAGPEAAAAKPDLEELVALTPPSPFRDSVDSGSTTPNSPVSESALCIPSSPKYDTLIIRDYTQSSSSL

As for `O=C1N[C@H](c2cncc(C#Cc3ccccc3)c2)[C@@H](c2cccc(F)c2)O1`, the Activity result in the series on Mus musculus [1] and in the series with Mus musculus [2] was “Toxic” each time. Moreover, the fraction unbound in series [3] is 0.004.

One may read the EC50 as the concentration giving half of the maximal effect. A low value points to a more potent agent. Broadly, the Ki is a measure of affinity in units of concentration, obtained from inhibition or displacement. Lower therefore signals tighter binding. Turning to `O=C1N[C@H](c2cc(C#Cc3ccccc3)ccn2)[C@@H](c2ccccc2)O1`, in the series with Mus musculus [4], the Activity entry is recorded as “Non-toxic”. The fraction unbound in series [3] is 0.006. Further, the 50% effective concentration (EC50) in series [5] and in series [7] was above 3 µM in each case. The same molecule gave a Ki in series [6] of 0.01 µM.

Regarding `COc1cccc([C@H]2OC(=O)N[C@@H]2c2cccc(C#Cc3ccccc3)c2)c1`, the Activity result with Mus musculus [8] was “Non-toxic”. The fraction unbound in series [3] was 0.003. The EC50 in series [5] is 0.029 µM; in series [7], above 30 µM. Further, the Ki in series [6] was found to be 0.013 µM.
